From ChEMBL document CHEMBL6083187, “Current status of the small molecule anti-HIV drugs in the pipeline or recently approved” (Bioorg Med Chem, 2024) come the findings set out here.

Some results are limits rather than exact numbers.

The test system of series [1] is Human immunodeficiency virus 1. In words: Antiviral activity against HIV-1. In kind it is functional, organism-based.
Series [2] deals with Human immunodeficiency virus 1. In words: Antiviral activity against HIV1 subtype A clinical isolate UG275. In kind it is functional, organism-based. The settings on record: Human immunodeficiency virus 1, UG275.
Series [3] addresses Human immunodeficiency virus type 1 protease (Human immunodeficiency virus 1, UniProt Q72874). In words: Inhibition of HIV-1 protease by fluorescence resonance energy transfer analysis.
For series [4], the target named is T1, Human immunodeficiency virus type 1 reverse transcriptase (Human immunodeficiency virus 1, UniProt Q72547). In words: Inhibition of HIV-1 reverse transcriptase.
The target of series [5] is T2, Human immunodeficiency virus type 1 integrase (Human immunodeficiency virus 1, UniProt Q7ZJM1). In words: Inhibition of HIV-1 integrase strand transfer activity.
T2 sequence (Q7ZJM1 whole entry): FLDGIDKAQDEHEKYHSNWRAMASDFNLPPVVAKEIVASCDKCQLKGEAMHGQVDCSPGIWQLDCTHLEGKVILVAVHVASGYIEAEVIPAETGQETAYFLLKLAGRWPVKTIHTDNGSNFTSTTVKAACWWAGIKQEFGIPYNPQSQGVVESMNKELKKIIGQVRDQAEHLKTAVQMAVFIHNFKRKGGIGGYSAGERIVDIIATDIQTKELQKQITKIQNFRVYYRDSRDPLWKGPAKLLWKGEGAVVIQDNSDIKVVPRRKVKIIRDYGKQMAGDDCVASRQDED
A short description of series [6]: Inhibition of Influenza A virus RdRp.
Series [7] has as its target Structural capsid protein (Human immunodeficiency virus 1, UniProt Q76129). In words: Inhibition of HIV-1 NL4-3 monomeric capsid protein.
The target of series [8] is T2, Human immunodeficiency virus type 1 integrase. In words: Inhibition of HIV-1 BAL integrase strand transfer activity.
Series [9] has the same target. In words: Inhibition of HIV-1 NL4-3 integrase.
Series [10] concerns Human immunodeficiency virus 1. In words: Antiviral activity against HIV-1 NL4-3 infected in human MT2 cells assessed as reduction in viral replication. In kind it is functional, organism-based. The conditions noted are these: Human immunodeficiency virus 1, NL4-3, MT2.
Series [11] has as its system Human immunodeficiency virus 2. In words: Antiviral activity against HIV-2 ROD infected in human MT4 cells assessed as virus-induced cytopathic effect incubated for 5 days by MTT assay. In kind it is functional, organism-based. The settings on record: Human immunodeficiency virus 2, ROD, MT4, 120 h.
The nature of series [12]: Half life in human at 40 mg by LC-MS/MS analysis. The conditions noted are these: in vivo. In kind it is ADME.
Series [13] can be described thus: Tmax in human at 40 mg, po. In kind it is ADME. The conditions noted are these: in vivo.
A short description of series [14]: Half life in human at 20 mg by LC-MS/MS analysis. In kind it is ADME. The settings on record: in vivo.
The nature of series [15]: Cmax in human at 40 mg, po. In kind it is ADME. The settings on record: in vivo.
Series [16] is described as follows: Cmax in human at 20 mg, po. The conditions noted are these: in vivo. In kind it is ADME.
The nature of series [17]: Tmax in human at 20 mg, po. In kind it is ADME. The conditions noted are these: in vivo.
Series [18] concerns the target T1, Human immunodeficiency virus type 1 reverse transcriptase. In words: Inhibition of wild type HIV-1 reverse transcriptase.
The target is the same in series [19]. In words: Inhibition of HIV-1 NL4-3 reverse transcriptase.

Chain of Structural capsid protein (Q76129 whole entry): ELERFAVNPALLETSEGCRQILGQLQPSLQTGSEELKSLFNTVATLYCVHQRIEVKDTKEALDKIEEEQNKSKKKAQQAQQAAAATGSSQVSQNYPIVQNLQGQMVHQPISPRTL

As a reminder, the EC50 is the concentration that produces a half-maximal response. Take `C=C(C)[C@@H]1CC[C@]2(NCCN3CCS(=O)(=O)CC3)CC[C@]3(C)[C@H](CC[C@@H]4[C@@]5(C)CC=C(C6=CC[C@@](CF)(C(=O)O)CC6)C(C)(C)[C@@H]5CC[C@]43C)[C@@H]12` [FIPRAVIRIMAT]: the concentration for a half-maximal effect (EC50) was 9 nM in [1] and 3.5 nM in series [2].

A word on the IC50: it is the concentration at which inhibition is half-maximal. With `C=C(C)[C@@H]1CC[C@]2(NCCN3CCS(=O)(=O)CC3)CC[C@]3(C)[C@H](CC[C@@H]4[C@@]5(C)CC=C(c6ccc(C(=O)O)cc6)C(C)(C)[C@@H]5CC[C@]43C)[C@@H]12` [BMS-955176], the IC50 in [3] was greater than 10000 nM; in series [4], greater than 50000 nM; in [5] it was greater than 15000 nM; in series [6], greater than 100000 nM; in series [7] it was greater than 50000 nM.

Turning to `C[C@H]1CO[C@@H]2Cn3cc(C(=O)NCc4ccc(F)cc4F)c(=O)c(O)c3C(=O)N12` [CABOTEGRAVIR], the figures for the half-inhibitory concentration (IC50) in series [8] and in [9] were 0.22 nM and 0.34 nM, respectively.

Take `C#C[C@]1(CO)C=C[C@@H](n2cc(C)c(=O)[nH]c2=O)O1`: the EC50 in series [10] came out at 450 nM; in [11] it was 30 nM.

One may read the half-life as the time needed for the level to fall by half in the phase considered. A lower half-life goes with rapid decline. The Tmax is the time from dosing to the highest level. By Cmax is commonly meant the peak of the concentration-time curve. In the case of `CCC(=O)NS(=O)(=O)c1ccc(NC(=O)Cc2ccc(Br)c(Oc3cc(Cl)cc(C#N)c3)c2F)c(Cl)c1` [ELSULFAVIRINE], the half-life was 2.6 h in series [12] and 1.7 h in series [14]. The Tmax in [13] came out at 1.9 h; in series [17], 1.1 h. In addition, the Cmax was found to be 10.8 ng/mL in [15] and 7.5 ng/mL in [16].

As to `Cc1cc(/C=C/C#N)cc(C)c1Nc1ccnc(Nc2ccc(C#N)cc2)n1` [RILPIVIRINE], the IC50 in [18] was 0.24 nM; in series [19], less than 2 nM.
